{"source": "patent US20260167960A1", "about": "“METHODS AND COMPOSITIONS INCLUDING CONJUGATED DNAZYMES” (priority 2022, published 2026)", "test_system": "K. pneumoniae biofilm on silicon-coated latex Foley catheter", "assay": "Flow-cell catheter-associated biofilm, CFU assay", "type": "cell-based", "conditions": "2-hour perfusion; 750 or 1000 mcg/mL meropenem; FIG. 6A", "method": "Catheters were then connected to a flow-cell system containing fresh 10% TSB, and fresh media was perfused through the catheter by a pump at 10 ml/hour at 37° C. After 24 hours, treatment solution was perfused into the catheter at 10 ml/hour at 37° C. for 2 hours. Bacteria were scraped from the catheter into 1 ml PBS, and decimal serial dilutions were performed. All dilutions were plated by drop-plating technique on LB agar plates. LB agar plates were incubated at 37° C., and CFU were counted the next morning.\nTo test the effect of conjugated DNAzymes on established, catheter-associated biofilms, K. pneumoniae were incubated in catheters for 2 hours in static conditions and then for 24 hours with fresh media flow, after which they were subject to a 2-hour perfusion with 750 or 1000 mcg/mL meropenem, alone or in combination with tocopherol-conjugated or cholesterol-conjugated DNAzymes. After the incubation, the tubing was cut open and bacteria were scraped from the inside of the tubing, after which the CFU were determined by replating and observing colony formation. […] When CFU formation was tested in plates containing a much lower concentration (10 mcg/mL) of meropenem, the prior treatment with conjugated DNAzymes+meropenem nearly completely abolished colony formation (FIG. 6B), showing that antibiotic resistance was largely, if not entirely, abrogated in the disrupted biofilms.", "data": [{"smiles": "C[C@@H](O)[C@H]1C(=O)N2C(C(=O)O)=C(S[C@@H]3CN[C@H](C(=O)N(C)C)C3)[C@H](C)[C@H]12", "note": "[meropenem]", "values": [{"measurement": "disruption of established catheter-associated biofilms (CFU)", "value": "not antibiotic alone, significantly disrupted the established biofilms"}]}]}
